Source: patent US12428405B2, “Chalcone-based chemotherapeutic compound for triple negative breast cancer” (QATAR UNIVERSITY, priority 2019, dated 2025)
“Also recorded” adds a separate entry of the source.

Columns and labels:
BT-474 = assay: MTT cell viability; assay type: cell-based
Excerpt: Breast cancer cell lines including MDA-MB-231, MDA-MB-468, MCF-7, BT-474 and SK-BR-3 were obtained from the American Type Tissue Culture (ATCC) and maintained in complete cell culture media Gibco® RPMI 1640 (Thermo Fisher Scientific, USA) supplemented with 10% fetal bovine serum (PAN-Biotech, Aidenbach, Bavaria, Germany) and 1% penicillin/streptomycin (1×) antibiotics (Thermo Fisher Scientific, USA). Human normal mammary epithelial cells immortalized by E6/E7 of HPV type 16 (HNME-E6/E7) were used to predict potential safety of the compounds (125, 126). They were maintained in Gibco® Keratinocyte-SFM (1×) media. All cells were incubated in 5% CO2 at 37° C. incubator. Cells were maintained by routine sub-culturing in T-75 and T25 filtered tissue culture flasks.
MDA-MB-231, MDA-MB-468, MCF-7, BT-474 and HNME-E6/E7 cells were seeded overnight in 96-well plates at a concentration of 8000-10,000/well depending on their pre-calculated cell density and were incubated overnight. At 24 hours, media was replaced with fresh one. The treatment wells included 6-8 different concentrations of the compounds ranging between 0.25 μM-160 μM. At 48 hours post treatment, 10 μL MTT solution was added to each well followed by 4 hours of incubation. Afterwards, media with MTT was removed from all wells and 50 μl DMSO was added to each well to dissolve the crystals. This was followed by 5 minutes incubation. Absorbance was recorded at a wavelength of 562 nm after 3 minutes of shaking using Infinite 200 PRO Microplate Reader (Tecan, Switzerland). Percentage of viable cells was calculated using the following formula: […]

SK-BR-3 = assay: Radius cell migration assay; assay type: cell-based; conditions: Homo sapiens, 24 hours of treatment, 5 concentrations, three independent experiments, read-out: Migratory IC50 SK-BR-3
Description: For MCF-7 and SK-BR-3 cell lines, migration testing was performed using the Radius™ Cell Migration Assay Kit (Cell Biolabs, Inc., USA) and migration was quantified based on the change in wound area.

tubulin = assay: Cell free tubulin polymerization assay; assay type: biochemical; conditions: N=1×2, colchicine and paclitaxel as controls
Description: The effect of compound 14 on tubulin polymerization dynamics was assessed using the cell free Cytoskeleton tubulin polymerization assay kit, Version 8.3 (Cytoskeleton, Inc., USA). The experiment was conducted based on the manufacturer's recommendations. colchicine was used as a depolymerizing control while paclitaxel was used as a polymerizing control. Briefly, stock solutions of 10 μM of the compounds and controls were prepared in general tubulin buffer. Then, 10 μl of each solution was added in duplicates in half area 96-well plate prewarmed at 37° C. It was subsequently incubated at 37° C. for 2 minutes. Tubulin solution was prepared and 100 μl of it was added to each of the prewarmed wells of the compounds. The plate was immediately placed at a plate reader set up at kinetic modes and 37° C. temperature. Recording was conducted every minute for 60 minutes at 340 nm Absorbance.

Structure (SMILES): COc1cccc(C(=O)/C=C/c2ccc(N(CCCl)CCCl)cc2)c1 [Compound 14, (E)-3-(4-(Bis(2-chloroethyl)amino)phenyl)-1-(3-methoxyphenyl) prop-2-en-1-one]
- IC50 (BT-474; Homo sapiens, BT-474, 48 hours of treatment, Mean ± SEM (n = 3 × 3)): 9.22 ± 0.78 µM
- SI of HNME/BT-474 (selective index) (BT-474; ratio of LD50 on HNME-E6/E7 to IC50 on BT-474): 2.24
- IC50 (SK-BR-3): 2.79 ± 0.45 µM
- effect on tubulin polymerization (in words) (tubulin): inhibited with an effect comparable to colchicine; also recorded: comparable to tubulin desterilizing agent, colchicine
